Measured values taken from US20240391862A1, “(1,4,5-TRISUBSTITUTED-1H-PYRAZOL-3-YL)OXY-2-ALKOXY ALKYL ACIDS AND THEIR DERIVATIVES, THEIR SALTS AND THEIR USE AS HERBICIDAL AGENTS” (Bayer AKtiengesellschaft, priority 2021, published 2024).

How the values were obtained:
PHBPU = experiment: Pre-emergence herbicidal effect, greenhouse pot test; type: in vivo, Ipomoea purpurea; details: scored visually after about 3 weeks vs untreated controls
Description: (§1) Seeds of monocotyledonous and dicotyledonous weed plants and crop plants are placed in plastic or organic planting pots and covered with soil. The compounds of the invention, formulated in the form of wettable powders (WP) or as emulsion concentrates (EC), are then applied to the surface of the covering soil as aqueous suspension or emulsion with addition of 0.5% additive at a water application rate equivalent to 600 l/ha. After the treatment, the pots are placed in a greenhouse and kept under good growth conditions for the trial plants. After about 3 weeks, the effect of the preparations is scored visually in comparison with untreated controls as percentages. For example, 100% activity=the plants have died, 0% activity=like control plants.
(§2) Tables 1a to 19c below show the effects/crop compatibilities of selected compounds of the general formula (I) on various harmful plants at an application rate corresponding to 20 to 320 g/ha, which were obtained by the trial procedure specified above.
(§3) • ALOMY: Alopecurus myosuroides SETVI: Setaria viridis • AVEFA: Avena fatua POLCO: Fallopia convolvulus • AMARE: Amaranthus retroflexus ECHCG: Echinochloa crus-galli • LOLRJ: Lolium rigidum STEME: Stellaria media • VERPE: Veronica persica MATIN: Tripleurospermum inodorum • DIGSA: Digitaria sanguinalis ABUTH: Abutylon threophrasti • TRZAS: Triticum aestivum VIOTR: Viola tricolor • BRSNW: Brassica napus ZEAMX: Zea mays • PHBPU: Ipomoea purpurea GLXMA: Glycine max • ORYSA: Oryza sativa HORMU: Hordeum murinum

ECHCG = experiment: as above; type: in vivo, Echinochloa crus-galli; details: scored visually after about 3 weeks vs untreated controls; for pest or weed control at 320 g/ha: Echinochloa crus-galli, 504 h, read-out: Pre-emergence effect at 320 g/ha against ECHCG in %
Description: as §1, §2, §3

DIGSA = experiment: as above; type: in vivo, Digitaria sanguinalis; details: scored visually after about 3 weeks vs untreated controls
Description: as §1, §2, §3

AVEFA = experiment: as above; type: in vivo, Avena fatua; details: scored visually after about 3 weeks vs untreated controls
Description: as §1, §2, §3

ALOMY = experiment: as above; type: in vivo, Alopecurus myosuroides; details: scored visually after about 3 weeks vs untreated controls
Description: as §1, §2, §3

SETVI = experiment: as above; type: in vivo, Setaria viridis; details: scored visually after about 3 weeks vs untreated controls; for pest or weed control at 320 g/ha: Setaria viridis, 504 h, read-out: Pre-emergence effect at 320 g/ha against SETVI in %
Description: as §1, §2, §3

MATIN = experiment: as above; type: in vivo, Tripleurospermum inodorum; details: scored visually after about 3 weeks vs untreated controls; for pest or weed control at 320 g/ha: Tripleurospermum inodorum, 504 h, read-out: Pre-emergence effect at 320 g/ha against MATIN in %
Description: as §1, §2, §3

LOLRI = experiment: as above; type: in vivo, Lolium rigidum; details: scored visually after about 3 weeks vs untreated controls
Description: as §1, §2, §3

AMARE = experiment: as above; type: in vivo, Amaranthus retroflexus; details: scored visually after about 3 weeks vs untreated controls; for pest or weed control at 320 g/ha: Amaranthus retroflexus, 504 h, read-out: Pre-emergence effect at 320 g/ha against AMARE in %
Description: as §1, §2, §3

VIOTR = experiment: as above; type: in vivo, Viola tricolor; details: scored visually after about 3 weeks vs untreated controls
Description: as §1, §2, §3

ABUTH = experiment: as above; type: in vivo, Abutilon theophrasti; details: scored visually after about 3 weeks vs untreated controls
Description: as §1, §2, §3

KCHSC = experiment: as above; type: in vivo; details: scored visually after about 3 weeks vs untreated controls
Description: as §1, with “control plants. Tables 1a to 19c below show the effects/crop compatibilities of selected compounds of the general formula (I) on various harmful plants at an application rate corresponding to 20 to 320 g/ha, which were obtained by the trial procedure specified above.” for “control plants.”

POLCO = experiment: as above; type: in vivo, Fallopia convolvulus; details: scored visually after about 3 weeks vs untreated controls; for pest or weed control at 320 g/ha: Fallopia convolvulus, 504 h, read-out: Pre-emergence effect at 320 g/ha against POLCO in %
Description: as §1, §2, §3

ZEAMX = experiment: Pre-emergence herbicidal effect and crop plant compatibility, greenhouse pot test; type: in vivo, Zea mays; details: scored visually after about 3 weeks vs untreated controls
Description: as §1, §2, §3

VERPE = experiment: Pre-emergence herbicidal effect, greenhouse pot test; type: in vivo, Veronica persica; details: scored visually after about 3 weeks vs untreated controls
Description: as §1, §2, §3

SMILES	Pre-emergence effect at 320 g/ha against PHBPU in % (PHBPU) [%]	Pre-emergence effect at 80 g/ha against ECHCG in % (ECHCG) [%]	Pre-emergence effect at 320 g/ha against DIGSA in % (DIGSA) [%]	Pre-emergence effect at 80 g/ha against AVEFA in % (AVEFA) [%]	Pre-emergence effect at 320 g/ha against AVEFA in % (AVEFA) [%]	Pre-emergence effect at 80 g/ha against ALOMY in % (ALOMY) [%]	Pre-emergence effect at 320 g/ha against ALOMY in % (ALOMY) [%]	Pre-emergence effect at 80 g/ha against LOLRI in % (LOLRI) [%]	Pre-emergence effect at 320 g/ha against LOLRI in % (LOLRI) [%]	Pre-emergence effect at 20 g/ha against AMARE in % (AMARE) [%]	Pre-emergence effect at 80 g/ha against AMARE in % (AMARE) [%]	Pre-emergence effect at 80 g/ha against VIOTR in % (VIOTR) [%]	Pre-emergence effect at 320 g/ha against VIOTR in % (VIOTR) [%]	Pre-emergence effect at 320 g/ha against ABUTH in % (ABUTH) [%]	Pre-emergence effect at 80 g/ha against POLCO in % (POLCO) [%]	pest or weed control at 320 g/ha (ECHCG; 320 g/ha) [%]	pest or weed control at 320 g/ha (SETVI; 320 g/ha) [%]	pest or weed control at 320 g/ha (MATIN; 320 g/ha) [%]	pest or weed control at 320 g/ha (AMARE; 320 g/ha) [%]	pest or weed control at 320 g/ha (POLCO; 320 g/ha) [%]	other results
COC(=O)CCOC(=O)C(OC)Oc1nn(-c2ncccc2F)c(-c2cncc(F)c2)c1C1CC1 (single isomer, unassigned) [Example I-76]	90	90	90	90	100	90	90	90	100	80	100	100	100	90	90	–	–	–	–	–	Pre-emergence effect at 320 g/ha against ECHCG in % (ECHCG; 320 g/ha): 100%; Pre-emergence effect at 80 g/ha against DIGSA in % (DIGSA; 80 g/ha): 80%; Pre-emergence effect at 80 g/ha against SETVI in % (SETVI; 80 g/ha): 90%; Pre-emergence effect at 320 g/ha against SETVI in % (SETVI; 320 g/ha): 100%; Pre-emergence effect at 320 g/ha against MATIN in % (MATIN; 320 g/ha): 90%; Pre-emergence effect at 320 g/ha against AMARE in % (AMARE; 320 g/ha): 100%; Pre-emergence effect at 80 g/ha against ABUTH in % (ABUTH; 80 g/ha): 90%; Pre-emergence effect at 20 g/ha against KCHSC in % (KCHSC; 20 g/ha): 90%; Pre-emergence effect at 80 g/ha against KCHSC in % (KCHSC; 80 g/ha): 90%; Pre-emergence effect at 320 g/ha against KCHSC in % (KCHSC): 100%; Pre-emergence effect at 320 g/ha against POLCO in % (POLCO; 320 g/ha): 90%; Pre-emergence effect at 20 g/ha against ZEAMX in % (ZEAMX): 20%
COC(Oc1nn(-c2cc(F)ccc2F)c(-c2cncc(F)c2)c1C1CC1)C(=O)O (stereo not shown) [Example I-34]	90	90	80	90	100	90	100	90	100	–	100	100	100	90	90	100	90	90	100	90	Pre-emergence effect at 320 g/ha against VERPE in % (VERPE): 80%; Pre-emergence effect at 80 g/ha against PHBPU in % (PHBPU): 90%; Pre-emergence effect at 20 g/ha against AVEFA in % (AVEFA; 20 g/ha): 80%; Pre-emergence effect at 80 g/ha against MATIN in % (MATIN): 90%; Pre-emergence effect at 20 g/ha against VIOTR in % (VIOTR; 20 g/ha): 80%; Pre-emergence effect at 20 g/ha against POLCO in % (POLCO): 90%
COC(=O)C(OC)Oc1nn(-c2cc(F)ccc2F)c(-c2cncc(F)c2)c1C1CC1 (stereo not shown) [Example I-31, Methyl {[4-cyclopropyl-1-(2,5-difluorophenyl)-5-(5-fluoropyridin-3-yl)-1H-pyrazol-3-yl]oxy}(methoxy)acetate]	90	90	90	90	90	–	100	–	100	80	100	100	100	80	100	100	90	100	100	100	Pre-emergence effect at 320 g/ha against VERPE in % (VERPE): 90%; Pre-emergence effect at 80 g/ha against PHBPU in % (PHBPU): 90%; Pre-emergence effect at 80 g/ha against MATIN in % (MATIN): 90%; Pre-emergence effect at 20 g/ha against POLCO in % (POLCO): 80%
COC(=O)C(OC)Oc1nn(-c2ccccc2F)c(-c2ccc(F)nc2)c1I (stereo not shown) [Example I-49]	–	–	100	–	90	–	90	–	90	–	90	–	90	–	–	90	100	90	100	80	Pre-emergence effect at 320 g/ha against KCHSC in % (KCHSC): 100%; Pre-emergence effect at 20 g/ha against ZEAMX in % (ZEAMX): 0%; Pre-emergence effect at 80 g/ha against ZEAMX in % (ZEAMX; 80 g/ha): 0%
